Test results as given in US8574914B2, “Methods for mobile zinc measurement” (The General Hospital Corporation, priority 2009, dated 2013).

Experiment: fluorescent zinc titration of ZPP1, fit to two-step binding model
Source text: Since ZPP1 contains two zinc-binding units, the following stepwise equilibria describe the binding events.
Two apparent binding constants, (K1app=1.52×10^11 M^−1, K2app=1.02×10^8 M^−1) were obtained by fitting the experimental data to the two-step model with high fidelity.

[1] = fluorescence titration, two-step model fit

O=C(O)c1ccccc1-c1c2cc(Cl)c(=O)c(CN(Cc3ccccn3)Cc3cnccn3)c-2oc2c(CN(Cc3ccccn3)Cc3cnccn3)c(O)c(Cl)cc12 [ZPP1]
apparent binding constant K1app (first step zinc binding) [1]: 1.52e+11 M⁻¹
apparent binding constant K2app (second step zinc binding) [1]: 1.02e+08 M⁻¹
zinc equivalents at which fluorescence intensity reaches its maximum (state B): ~2 equiv
fluorescence response on addition of up to 1 equiv of zinc (up to 1 equiv zinc (state A)): only a slight fluorescence increase
